The subject of one series is LOX. The conditions noted are these: peptidyl lysine oxidation by LOX; cited from earlier work. An excerpt:
An alternative approach for specific targeting of LOX involves the use of oligopeptides. Nagan and Kagan have investigated collagen-like structures to explore peptide sequences derived from the lysine-containing N- and C-terminal telopeptides of collagen concerning their enzymatic conversion by LOX. […] It was concluded that the aspartic acid located two positions ...

Series [1] is described as follows: Radio-HPLC of plasma samples and quality control (retention time). Type of series: physicochemical. The conditions noted are these: Luna C18(2) 250×4.6 mm, water/0.2 % TFA - acetonitrile gradient, 1 ml/min; two more lipophilic radiometabolites eluted at 13.2 and 14.3 min. How it is done: (§1) Normal BALB/c mice received injections of approximately 25 MBq of [^18F]FB-GGGDPKGGGG. Venous blood samples were taken at 5, 15, 30 and 60 min postinjection and processed for determination of metabolic stability in vivo. Blood cells were separated by centrifugation (13,000 rpm for 5 min). Proteins in the supernatant were precipitated by addition of 2 volume parts of methanol followed by a second centrifugation step (13,000 rpm for 5 min). Radioactivity in blood components (cells, proteins and plasma) was measured using a Wallac Wizard 1480 3 automatic gamma counter. The clear plasma supernatant was examined using a Shimadzu HPLC system (Shimadzu Scientific Instruments, Columbia, MD, USA) equipped with a DGU-20A5 degasser, a SIL-20AHT autosampler, a LC-20AT pump, a SPD-M20A photo diode array detector and a RAMONA* radiodetector (Raytest Isotopenmessgeraete, Straubenhardt, Germany). The samples were analyzed using a Phenomenex Luna 10-μm C18(2) 100 Å, 250×4.6-mm column and the following gradients with water/0.2 % TFA as solvent A and acetonitrile as solvent B: 0–3 min 10 % B, 10 min 30 % B, 17 min 50 % B, 23 min 70 % B and 27–30 min 90 % B. The flow was constant at 1 ml/min, and the ultraviolet signals were measured at 210 nm and 254 nm.

Another series relates to MDA-MB-231 tumors. Type of series: in vivo, NIH-III nu/nu mice. How it is done:
(§2) The pellet was implanted subcutaneously into the upper right flank to provide a constant level of 17β-estradiol needed by the estrogen receptor (ER)-positive MCF-7 cells. Tumors were imaged 20–30 days after injection, with the tumors reaching sizes ranging from 200 to 400 mm^3. Human MDA-MB-231 cells (1×10^6 cells in 100 μl of PBS) were also injected subcutaneously into 8–10-week-old female NIH-III nu/nu mice. After 7–9 days, they reached a size of approximately 500 mm^3 and were suitable for the PET experiments.
(§3) PET experiments were performed with [^18F]FB-GGGDPKGGGGG-NH2 injected into EMT-6 tumor-bearing BALB/c mice or into NIH-III mice bearing subcutaneous MCF-7 or MDA-MB-231 tumors, and tracer uptake was analyzed in vivo. For radiotracer injection, a catheter was placed into the tail vein of the mouse. While under anesthesia, mice were placed in the prone position with the medial axis parallel to the axial axis of the scanner and the thorax, abdomen and hind legs placed into the center of the field of view of the microPET R4 or Inveon PET/computed tomography (CT) scanner (Siemens Preclinical Solutions, Knoxville, TN, USA). A transmission scan for attenuation correction was not acquired. [^18F]FB-GGGDPKGGGGG-NH2 (4–5 MBq) in 100–150 μl of saline was injected intravenously through the catheter into the tail vein. The effects of BAPN were analyzed after intraperitoneal injection of 2 mg (100 mg/kg) of the inhibitor 4 h and 24 h before radiotracer injection. For the different experimental protocols, either an emission scan 60 min postinjection (dynamic experiments) was performed immediately or a 20 min postinjection PET scan acquisition (static scan followed by CT scan) was performed. […]
(§4) The pixel size was 0.085×0.085×0.12 cm, and the resolution in the center field of view was 1.8 mm. […] Mean standardized uptake values (SUVmean = [activity/ml tissue]/[injected activity/body weight], mL/kg] were calculated for each ROI. Time–activity curves (TACs) were generated for the dynamic scans only. All semiquantified PET data are presented as mean ± SEM.

On the set-up of series [2]: species or system BALB/c mice. The following applies: mouse, in vivo. Here is the method:
as §1

A further series deals with EMT-6 tumors. In kind it is in vivo, BALB/c mice. Here is the method: Murine EMT-6 cells (5 × 10^6 cells in 100 μl of PBS) were injected into the upper left flank of female BALB/c mice (20–24 g; Charles River, Saint-Constant, QC, Canada). The EMT-6 tumor-bearing mice were imaged and used for ex vivo biodistribution experiments after allowing 7–10 days for the tumors to reach sizes of about 600 mm^3.
(§5) PET experiments were performed with [^18F]FB-GGGDPKGGGGG-NH2 injected into EMT-6 tumor-bearing BALB/c mice or into NIH-III mice bearing subcutaneous MCF-7 or MDA-MB-231 tumors, and tracer uptake was analyzed in vivo. For radiotracer injection, a catheter was placed into the tail vein of the mouse. While under anesthesia, mice were placed in the prone position with the medial axis parallel to the axial axis of the scanner and the thorax, abdomen and hind legs placed into the center of the field of view of the microPET R4 or Inveon PET/computed tomography (CT) scanner (Siemens Preclinical Solutions, Knoxville, TN, USA). A transmission scan for attenuation correction was not acquired. [^18F]FB-GGGDPKGGGGG-NH2 (4–5 MBq) in 100–150 μl of saline was injected intravenously through the catheter into the tail vein. The effects of BAPN were analyzed after intraperitoneal injection of 2 mg (100 mg/kg) of the inhibitor 4 h and 24 h before radiotracer injection. For the different experimental protocols, either an emission scan 60 min postinjection (dynamic experiments) was performed immediately or a 20 min postinjection PET scan acquisition (static scan followed by CT scan) was performed. Depending on the experimental setup, data acquisition continued for either 60 min or 20 min in three-dimensional list mode. The dynamic list mode data were sorted into sinograms with 53 time frames (10×2 s, 8×5 s, 6×10 s, 6×20 s, 8×60 s, 10×120 s and 5×300 s). The frames were reconstructed using ordered subset expectation maximization or maximum a posteriori reconstruction modes.
(§6) The pixel size was 0.085×0.085×0.12 cm, and the resolution in the center field of view was 1.8 mm. Correction for partial volume effects was not performed. The image files were further processed using the ROVER v2.0.51 software (ABX, Radeberg, Germany). Masks defining three-dimensional regions of interest (ROIs) were set, and the ROIs were defined by 50 % thresholding. Mean standardized uptake values (SUVmean = [activity/ml tissue]/[injected activity/body weight], mL/kg] were calculated for each ROI. Time–activity curves (TACs) were generated for the dynamic scans only. All semiquantified PET data are presented as mean ± SEM.

The subject of the next series is MCF-7 tumors. In kind it is in vivo, NIH-III nu/nu mice. Here is the method:
Human MCF-7 cells, which form xenografts in female athymic mice, were injected subcutaneously (2–5×10^6 cells in 100 μl of PBS) into 8–10-week-old female NIH-III nu/nu mice (Charles River, Wilmington, MA, USA). Before injection of the cells, all mice received a 0.72-mg pellet containing 17β-estradiol in a 60-day release preparation (Innovative Research of America, Sarasota, FL, USA).
as §2
as §3, with “[^18F]FB-GGGDPKGGGGG-NH2 (4–5 MBq) in 100–150 μl of saline was injected intravenously through the catheter into the tail vein.” left out, “injection.” for “injection. For the different experimental protocols, either an emission scan 60 min postinjection (dynamic experiments) was performed immediately or a 20 min postinjection PET scan acquisition (static scan followed by CT scan) was performed.”
as §4

Series [3] concerns breast cancer tumor models. In kind it is in vivo, mice. The following applies: for tumor-to-blood ratio / tumor-to-muscle ratio: tumor model not stated. Here is the method: as §5, §6

Like-named read-outs stand apart in the source and are kept apart here.

This is an account of results in paper PMC4533939, “Targeting lysyl oxidase for molecular imaging in breast cancer” (Breast Cancer Research : BCR, 2015).

Regarding “Ac-GGGDPKGGGGG-NH2 [oligopeptide substrate with favorable kinetic properties for LOX-mediated peptidyl lysine oxidation (Nagan and Kagan)]”, in the series on LOX, the “Michaelis constant (Km) among several collagen N-telopeptide derivatives” value is given as “lowest” and the “kcat/Km among several collagen N-telopeptide derivatives” value was “highest”.
As to “[^18F]FB-GGGDPKGGGGG-NH2 [[^18F]fluorobenzoate-GGGDPKGGGGG-NH2, 18F-labeled LOX-targeting oligopeptide PET radiotracer]”, the HPLC retention time in series [1] came out at 12.2 min. For the same molecule, the “SUV5min, tumor” value in the series on MDA-MB-231 tumors (MDA-MB-231 tumor, 4-5 MBq i.v., 5 min postinjection, mean ± SEM, n = 5) is given as 0.50±0.09; in the series with EMT-6 tumors (EMT-6 tumor, 4-5 MBq i.v., 5 min postinjection, mean ± SEM, n = 4), 0.63±0.08; in the series on MCF-7 tumors (MCF-7 tumor, 4-5 MBq i.v., 5 min postinjection, mean ± SEM, n = 6), 0.59±0.03. For the same molecule, the “SUV60min, tumor” value in the series on MDA-MB-231 tumors (MDA-MB-231 tumor, 60 min postinjection, mean ± SEM, n = 5) is reported as 0.12±0.02; in the series with EMT-6 tumors (EMT-6 tumor, 60 min postinjection, mean ± SEM, n = 4), 0.19±0.02; in the series on MCF-7 tumors (MCF-7 tumor, 60 min postinjection, mean ± SEM, n = 6), 0.12±0.02. Also, the “SUV60min, muscle tissue” value turned out to be 0.04±0.004 in the series on MDA-MB-231 tumors (mouse, in vivo); 0.03±0.004 with EMT-6 tumors (mouse, in vivo); 0.05±0.008 in the series with MCF-7 tumors (mouse, in vivo). For the same molecule, the “share of injected radiotracer found in the plasma compartment” value in series [2] is recorded as above 60%. Besides, in the series on EMT-6 tumors (EMT-6 tumor, 60 min postinjection, control and BAPN-predosed groups), the “SUV60min, tumor, in the absence and presence of BAPN” value is 0.19–0.21. Besides, the “SUV5min, tumor, in the presence of BAPN” value in the series on EMT-6 tumors (EMT-6 tumor, BAPN i.p. 24 h before radiotracer, mean ± SEM, n = 7, p > 0.05) came to 0.52±0.05. The tumor-to-blood ratio was 0.3 in series [3] (5 min postinjection) and 2.3 in series [3] (60 min postinjection). The tumor-to-muscle ratio in series [3] (5 min postinjection) was 2.7; in series [3] (60 min postinjection) it was 1. Also, the “time to maximum SUV in tumor” value in series [3] (mouse, in vivo) was 3 to 5 min.
For `N#CCCN` [BAPN, β-aminopropionitrile, reference compound], in the series with EMT-6 tumors (EMT-6 tumor, 100 mg/kg BAPN (about 2 mg per mouse) i.p. 4 h before [18F]FB-GGGDPKGGGGG-NH2), the “reduction of maximum tumor uptake of the radiotracer (SUV5min)” value was “approximately 33%”. Besides, the “effect on radiotracer tumor uptake at 60 min postinjection” value in the series on EMT-6 tumors (EMT-6 tumor, BAPN predosing 4 h or 24 h) was “no effect”. Further, in the series with EMT-6 tumors (muscle of EMT-6 tumor-bearing mice, BAPN predosing), the “effect on radioactivity in muscle tissue” value is listed as “unaltered”.
